How the values were obtained:
Type in all cases: cell-based
[1] = molecular target: T1, transient receptor potential vanilloid 1 (TRPV1) (Rattus norvegicus, UniProt O35433); experiment: whole-cell patch clamp of capsaicin-induced TRPV1 currents in rat DRG neurons; capsaicin concentration curves with and without C9
T1 construct: native channel in rat DRG neurons
Text: whole-cell patch clamp of capsaicin-induced TRPV1 currents in rat DRG neurons; capsaicin concentration curves with and without C9 on transient receptor potential vanilloid 1 (TRPV1) | Concentration dependence curve of the inhibition on CAP-induced TRPV1 currents of C9.

[2] = molecular target: T1, transient receptor potential vanilloid 1 (TRPV1); experiment: whole-cell patch clamp in rat DRG neurons, capsaicin concentration-response ([…])
[3] = molecular target: T1, transient receptor potential vanilloid 1 (TRPV1); experiment: whole-cell patch clamp of capsaicin-induced currents in rat DRG neurons, single concentration ([…])

T1 sequence (O35433 whole entry): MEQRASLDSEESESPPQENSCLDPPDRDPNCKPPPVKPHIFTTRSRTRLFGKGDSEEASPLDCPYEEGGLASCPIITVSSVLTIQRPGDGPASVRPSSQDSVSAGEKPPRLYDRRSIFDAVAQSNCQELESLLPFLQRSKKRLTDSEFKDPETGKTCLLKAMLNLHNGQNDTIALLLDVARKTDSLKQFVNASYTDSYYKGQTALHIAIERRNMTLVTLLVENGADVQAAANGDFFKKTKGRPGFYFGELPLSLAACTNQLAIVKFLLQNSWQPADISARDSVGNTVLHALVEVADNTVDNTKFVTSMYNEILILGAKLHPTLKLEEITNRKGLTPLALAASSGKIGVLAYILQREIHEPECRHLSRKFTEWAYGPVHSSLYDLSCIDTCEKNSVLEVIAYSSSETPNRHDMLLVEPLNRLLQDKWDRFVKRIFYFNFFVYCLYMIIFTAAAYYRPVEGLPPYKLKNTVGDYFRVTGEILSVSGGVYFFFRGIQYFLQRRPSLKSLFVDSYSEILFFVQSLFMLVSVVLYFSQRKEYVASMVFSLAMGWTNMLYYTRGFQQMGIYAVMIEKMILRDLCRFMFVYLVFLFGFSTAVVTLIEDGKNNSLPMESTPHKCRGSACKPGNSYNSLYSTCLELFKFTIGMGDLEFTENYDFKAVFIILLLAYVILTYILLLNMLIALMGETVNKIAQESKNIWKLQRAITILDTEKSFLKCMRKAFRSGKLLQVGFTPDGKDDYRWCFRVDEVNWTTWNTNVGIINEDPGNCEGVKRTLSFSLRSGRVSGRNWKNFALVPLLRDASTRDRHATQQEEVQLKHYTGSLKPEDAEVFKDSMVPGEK

## C[C@@H]1O[C@@H](O[C@H]2[C@H](O)[C@@H](O)[C@H](OC[C@H]3O[C@@H](OC(=O)[C@]45CCC(C)(C)C[C@H]4C4=CC[C@@H]6[C@@]7(C)CC[C@H](O[C@@H]8OC[C@H](O)[C@H](O)[C@H]8O)[C@@](C)(CO)[C@@H]7CC[C@@]6(C)[C@]4(C)CC5)[C@H](O)[C@@H](O)[C@@H]3O)O[C@@H]2CO)[C@H](O)[C@H](O)[C@H]1O [Compound 9, hederasaponin D]
[1]
  EC50: 36.9 ± 4.4 nM

## COc1cc(CNC(=O)CCCC/C=C/C(C)C)ccc1O [capsaicin]
[2]
  whole-cell patch clamp in rat DRG neurons, capsaicin concentration-response (0.0): Concentration dependent curves of TRPV1 currents induced by CAP in the presence or absence of C9.

## Oc1cc2c(cc1O)CN(C(=S)NCCc1ccc(Cl)cc1)CCC2 [capsazepine]
[3]
  whole-cell patch clamp of capsaicin-induced currents in rat DRG neurons, single: The recorded current was almost completely suppressed by capsazepine (CPZ), proving that it was the CAP-induced TRPV1 current.

Source: paper PMC10613692, “Central and peripheral analgesic active components of triterpenoid saponins from Stauntonia chinensis and their action mechanism” (Frontiers in Pharmacology, 2023)
